According to PMC12655733, “Design, Synthesis and Evaluation of the First 2-Alkynyl(aza)indole ^18F Probe Targeting α-Synuclein Aggregates” (Pharmaceuticals, 2025):
Each block holds one compound with its values, some of them ahead of it.

Tests used:
[1] = molecular target: T1, α-syn fibrils (Homo sapiens, UniProt P37840); assay: Dynamic PET imaging and ex vivo brain radioactivity in rats with α-syn fibrils implanted in the right striatum; conditions: Wistar rat
T1 construct: made in house; host or cells: Escherichia coli BL21(DE3)
From the text: The next step in the characterization of our new PET tracer was to evaluate its ability to bind in vivo to α-syn fibrils. For this aim, we performed a simple preliminary imaging experiment in which the same α-syn fibrils as those used in in vitro experiments were surgically and unilaterally implanted in the brains of two adult Wistar rats. The accumulation of [^18F]45 after intravenous (i.v.) injection was compared, in each animal, between the implanted and intact non-implanted side. The fibrils were administered by stereotaxic injection into the right striatum, [^18F]45 was i.v. injected 1 day later, and image acquisition began at the time of injection using a microPET eXplore Vista (GE Healthcare, Buc, France)/CT system during 3 h. PET images were reconstructed and analyzed in three regions of interest, i.e., the left striatum without fibrils (C-ST), the right striatum with fibrils (I-ST), and the cerebellum (CE). At the end of imaging acquisition, each rat was sacrificed, and brain regions were removed, weighed, and their radioactivity measured.
PET imaging experiments were performed with [^18F]45 on two adult male Wistar rats weighing 250–300 g (Janvier, Le Genest-Saint-Isle, France). The animals were housed in a temperature (23 °C) and humidity (43%) controlled environment under a 12-h light-dark cycle with food and water available ad libitum, and experimental procedures were conducted in accordance with the requirements of the European Community Council Directive 2010/63/EU for the care of laboratory animals and with the authorization of the Regional Ethical Committee (Authorization N°2012-03-1).
The rats were scanned one hour after receiving an intra-cerebral administration of α-syn. They were anesthetized with isoflurane (4% in O2, 500 mL/min, Baxter, France), placed on a stereotaxic frame (Stoelting, Phymep, Paris, France) and maintained under isoflurane 2.5% (500 mL/min) during surgery. Body temperature was monitored and kept at 37 °C. Fibrils of α-syn were prepared as described above (solution of 10 mg/mL in PBS). This solution was administered in two sites of the right striatum of each rat using a 25 μL Hamilton Gastight syringe (Hamilton, Massy, France) with a 30-gauge needle (Phymep, Paris, France) connected to a perfusion system. […]
For the PET experiment, each rat was anesthetized with isoflurane (Baxter, Guyancourt, France), at 4–5% in O2 for induction and then 1.5–2% during scanning, and received an i.v. bolus injection of 42–46 MBq of [^18F]45 (molar activity 99.69 GBq/µmol) into the tail vein. […] The quantification of the tracer uptake was extracted from the last 6 120-s frames corresponding to 49–61 min of acquisition after tracer injection. […] PET images were reconstructed and analyzed using PMOD (3.403, PMOD Technologies, Zurich, Switzerland). […]

[2] = molecular target: Aβ fibrils; conditions: cited from earlier work; for Kd: read-out: Kd for Aβ fibrils
[3] = molecular target: tau fibrils; conditions: cited from earlier work
[4] = molecular target: T1, α-syn fibrils; conditions: cited from earlier work; for Kd: read-out: Kd for α-syn

radioactivity accumulation in the three brain regions (CE, I-ST, C-ST) at the end of imaging ([1]; ex vivo γ-counting after PET, n = 2): identical radioactivity accumulation
ability to cross the blood–brain barrier ([1]; i.v. 42–46 MBq, dynamic PET 3 h): able to cross the blood–brain barrier
brain uptake kinetics (time-activity curves) ([1]; i.v. 42–46 MBq, dynamic PET 3 h, CE, I-ST, C-ST): slow uptake and almost no washout
specificity of brain uptake / in vivo binding to implanted α-syn fibrils ([1]; α-syn fibrils in right striatum, i.v. 42–46 MBq): non-specific uptake was observed
Structure (SMILES): CN(CC[18F])c1ccc(C#Cc2cc3cccnc3[nH]2)cc1 [[^18F]45]

Structure (SMILES): Cc1cc2nc(/C=C/c3ccc(O)c(Br)c3)sc2cc1N(C)CCOCC[18F] [[^18F]F0502B]
Kd [2]: ~100 nM
Kd [3]: ~100 nM
Kd [4]: ~10 nM

Structure (SMILES): [18F]c1ccc2nc(/C=C/c3ccc(N4CCOCC4)cc3)sc2c1 [[^18F]MFSB]
Kd [2]: ~100 nM
Kd [3]: ~100 nM
Kd [4]: ~10 nM

Structure (SMILES): O=C1/C(=C\C=C\c2ccc([N+](=O)[O-])cc2)c2ccccc2N1Cc1ccc(OCC[18F])cc1 [[^18F]indolone]
selectivity towards Aβ fibrils ([2]; α-syn versus Aβ): 27 fold
selectivity for α-syn over tau fibrils ([3]; α-syn versus tau): 5 fold
Ki ([4]; in vitro): 10 nM
